Columns and labels:
[1] = target: T1, Serine/threonine-protein kinase Chk1 (Homo sapiens, UniProt O14757); test: Inhibition of recombinant CHK-mediated Cdc25C phosphorylation after 30 mins
T1 sequence (O14757 whole entry): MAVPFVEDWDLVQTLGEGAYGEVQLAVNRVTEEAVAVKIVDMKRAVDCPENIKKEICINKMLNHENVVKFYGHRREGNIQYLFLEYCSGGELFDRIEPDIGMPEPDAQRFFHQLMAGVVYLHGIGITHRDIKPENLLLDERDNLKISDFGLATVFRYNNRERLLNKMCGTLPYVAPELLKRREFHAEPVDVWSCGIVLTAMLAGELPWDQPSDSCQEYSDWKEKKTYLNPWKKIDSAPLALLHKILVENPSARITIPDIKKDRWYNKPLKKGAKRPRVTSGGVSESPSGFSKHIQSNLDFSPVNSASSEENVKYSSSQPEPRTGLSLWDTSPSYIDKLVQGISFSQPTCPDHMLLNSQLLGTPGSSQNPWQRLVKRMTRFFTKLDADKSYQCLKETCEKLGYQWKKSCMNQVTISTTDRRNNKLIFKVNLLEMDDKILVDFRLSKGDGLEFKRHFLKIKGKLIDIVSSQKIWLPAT

HeLa = test: cells; conditions: Homo sapiens
Description: Antiproliferative activity against human HeLa cells by MTS assay

[2] = Antiproliferative activity against human H1299 cells by FACS assay; format: functional, cell-based; conditions: NCI-H1299
[3] = Plasma clearance in mouse at 3 mg/kg, iv; format: ADME, organism-based; parameters: dose 3 mg/kg, route intravenous
[4] = Volume of distribution in mouse at 3 mg/kg, iv; format: ADME, organism-based; parameters: dose 3 mg/kg, route intravenous; conditions: in vivo, read-out: Vdss
[5] = Half life in mouse at 3 mg/kg, iv; format: ADME, organism-based; parameters: dose 3 mg/kg, route intravenous; conditions: in vivo
[6] = (§1) AUC in mouse at 3 mg/kg, iv; format: ADME, organism-based, Plasma; parameters: dose 3 mg/kg, route intravenous; conditions: plasma
[7] = Cmax in mouse at 10 mg/kg, ip; format: ADME, organism-based; parameters: dose 10 mg/kg, route intraperitoneal; conditions: in vivo
[8] = AUC in mouse at 10 mg/kg, ip; format: ADME, organism-based; parameters: dose 10 mg/kg, route intraperitoneal; conditions: plasma
[9] = Cmax in mouse at 10 mg/kg, po; format: ADME, organism-based; parameters: dose 10 mg/kg, route oral; conditions: in vivo
[10] = Oral bioavailability in mouse at 10 mg/kg; format: ADME, organism-based; conditions: in vivo
Mus musculus = test: as §1; format: ADME, organism-based, Plasma; parameters: dose 3 mg/kg, route intravenous; conditions: in vivo
[11] = AUC in mouse at 10 mg/kg, po; format: ADME, organism-based; parameters: dose 10 mg/kg, route oral; conditions: plasma
[12] = Metabolic stability in rat liver microsomes assessed as half life at 1 uM; format: ADME, Microsome
[13] = Apparent permeability across human Caco-2 cells at 1 uM; format: ADME, cell-based
[14] = Metabolic stability in rat liver microsome assessed as […] at 1 uM; format: ADME; conditions: liver microsomes, read-out: Activity (converted)
[15] = Metabolic stability in rat liver microsomes assessed as compound remaining at 1 uM after 30 mins; format: ADME, Microsome; conditions: read-out: Stability
[16] = Aqueous solubility at neutral pH; format: physicochemical; conditions: buffer

Row | Structure (SMILES) | IC50 [1] | EC50 (HeLa) | EC50 [2] | other results
1 | CC(=O)Nc1cccc2c1Cc1c(-c3ccc(-c4ccc(O)cc4)cc3)n[nH]c1-2 | 5.5 nM |  |  | 
2 | OCc1cccc2c1Cc1c(-c3ccc(-c4ccc(O)cc4)cc3)n[nH]c1-2 | 7.8 nM | > 59000 nM |  | 
3 | O=C(N[C@H]1CC[C@H](O)CC1)c1cccc2c1Cc1c(-c3ccc(-c4ccc(O)cc4)cc3)n[nH]c1-2 | > 10000 nM |  |  | 
4 | OCc1ccc2c(c1)-c1[nH]nc(-c3ccc(-c4ccc(O)cc4)cc3)c1C2 | 4.4 nM | > 59000 nM | > 10000 nM | 
5 | O=C(NCCO)c1ccc2c(c1)-c1[nH]nc(-c3ccc(-c4ccc(O)cc4)cc3)c1C2 | 5 nM |  |  | 
6 | CNC(=O)c1ccc2c(c1)-c1[nH]nc(-c3ccc(-c4ccc(O)cc4)cc3)c1C2 | 2.3 nM |  |  | 
7 | O=C(c1ccc2c(c1)-c1[nH]nc(-c3ccc(-c4ccc(O)cc4)cc3)c1C2)N1CCOCC1 | 91 nM |  |  | 
8 | COc1cc2c(cc1C(=O)N1CCOCC1)Cc1c(-c3ccc(-c4ccc(O)cc4)cc3)n[nH]c1-2 | 0.55 nM |  |  | 
9 | COc1cc2c(cc1CNCCO)Cc1c(-c3ccc(-c4ccc(O)cc4)cc3)n[nH]c1-2 | 0.43 nM |  |  | 
10 | COc1cc2c(cc1CNCCN1CCCC1)Cc1c(-c3ccc(-c4ccc(O)cc4)cc3)n[nH]c1-2 | 0.21 nM | 910 nM | 5100 nM | 
11 | COc1cc2c(cc1C(=O)N[C@H]1CC[C@H](O)CC1)C(C)(C)c1c(-c3ccc(-c4ccc(O)cc4)cc3)n[nH]c1-2 | 18 nM | 8600 nM | > 10000 nM | 
12 | COc1cc2c(cc1C(=O)NCc1ccccn1)Cc1c(-c3ccc(-c4ccc(O)c(F)c4)cc3)n[nH]c1-2 | 27 nM |  |  | clearance [3]: 60 mL/min/kg; Vd [4]: 2.4 L/kg; half-life [5]: 27.6 min; AUC [6]: 1700 ng·h/mL; Cmax [7]: 2800 nM; AUC [8]: 3800 ng·h/mL; Cmax [9]: < 50 nM; bioavailability [10]: 0%
13 | COc1cc2c(cc1C(=O)NCc1ccccn1)Cc1c(-c3ccc(-c4ccc(O)c(C#N)c4)cc3)n[nH]c1-2 | 9090 nM |  |  | 
14 | COc1cc2c(cc1CN1CCN(C)CC1)Cc1c(-c3ccc(-c4ccc(O)c(F)c4)cc3)n[nH]c1-2 | 28 nM |  |  | Vd [4]: 9.2 L/kg; half-life [5]: 36 min; AUC (Mus musculus): 690 ng·h/mL; Cmax [7]: 1300 nM; AUC [8]: 1600 ng·h/mL; Cmax [9]: 80 nM; AUC [11]: 130 ng·h/mL; bioavailability [10]: 6%
15 | COc1cc2c(cc1CN1CCN(C)CC1)Cc1c(-c3ccc(-c4ccc(O)c(C#N)c4)cc3)n[nH]c1-2 | > 10000 nM |  |  | 
16 | COc1cc2c(cc1CN1CCC(O)CC1)Cc1c(-c3ccc(-c4ccc(O)cc4)cc3)n[nH]c1-2 | 1.1 nM |  |  | 
17 | O=C(NCc1ccccn1)c1ccc2c(c1)Cc1c(-c3ccc(-c4ccc(O)cc4)cc3)n[nH]c1-2 |  | 23000 nM | > 10000 nM | Vd [4]: 4.7 L/kg; half-life [5]: 36 min; AUC (Mus musculus): 1200 ng·h/mL; Cmax [7]: 2000 nM; AUC [8]: 4400 ng·h/mL; Cmax [9]: 250 nM; AUC [11]: 160 ng·h/mL; bioavailability [10]: 4%; half-life at 1 µM [12]: 25 min; Papp at 1 µM [13]: 13.3 ×10⁻⁶ cm/s; k el at 1 µM [14]: 0.00049 s⁻¹; remaining at 0.5 h, 1 µM [15]: 40%; solubility [16]: < 0.03 µg/mL
18 | O=C(CNCc1ccncc1)Nc1ccc2c(c1)Cc1c(-c3ccc(-c4ccc(O)cc4)cc3)n[nH]c1-2 | 6.4 nM |  |  | 
19 | O=C(CN[C@H]1CC[C@H](O)CC1)Nc1ccc2c(c1)Cc1c(-c3ccc(-c4ccc(O)cc4)cc3)n[nH]c1-2 | 1.2 nM | > 59000 nM | > 10000 nM | 

Row | Structure (SMILES) | IC50 [1] | EC50 (HeLa) | EC50 [2] | other results
20 | O=C(CNCCO)Nc1ccc2c(c1)Cc1c(-c3ccc(-c4ccc(O)cc4)cc3)n[nH]c1-2 | 0.74 nM | > 59000 nM | > 10000 nM | 
21 | CC(C)(C)NCc1ccc2c(c1)-c1[nH]nc(-c3ccc(-c4ccc(O)cc4)cc3)c1C2 | 34 nM |  |  | 
22 | OCCNCc1ccc2c(c1)-c1[nH]nc(-c3ccc(-c4ccc(O)cc4)cc3)c1C2 | 12 nM |  |  | 
23 | CN(C)CCNCc1ccc2c(c1)-c1[nH]nc(-c3ccc(-c4ccc(O)cc4)cc3)c1C2 | 5.2 nM | > 59000 nM | > 10000 nM | 
24 | COc1cc2c(cc1C(=O)N1CCC(O)CC1)Cc1c(-c3ccc(-c4ccc(O)cc4)cc3)n[nH]c1-2 | 0.24 nM | 1400 nM | 5200 nM | 
25 | COc1cc2c(cc1C(=O)NCCN1CCCC1)Cc1c(-c3ccc(-c4ccc(O)cc4)cc3)n[nH]c1-2 | 0.83 nM |  |  | 
26 | COc1cc2c(cc1CN[C@H]1CC[C@H](O)CC1)Cc1c(-c3ccc(-c4ccc(O)cc4)cc3)n[nH]c1-2 | 0.56 nM | 620 nM | 3100 nM | 
27 | Oc1ccc(-c2ccc(-c3n[nH]c4c3Cc3cc(O)ccc3-4)cc2)cc1 | 4.4 nM |  |  | 
28 | OCc1ccc2c(c1)Cc1c(-c3ccc(-c4ccc(O)cc4)cc3)n[nH]c1-2 | 7.7 nM | > 59000 nM |  | 
29 | CCCCNCC(=O)Nc1ccc2c(c1)Cc1c(-c3ccc(-c4ccc(O)cc4)cc3)n[nH]c1-2 | 2.1 nM | 1700 nM | > 10000 nM | 
30 | CC(C)(C)CNCc1cccc2c1Cc1c(-c3ccc(-c4ccc(O)cc4)cc3)n[nH]c1-2 | 209 nM |  |  | 
31 | Oc1ccc(-c2ccc(-c3[nH]nc4c3Cc3cccc(O)c3-4)cc2)cc1 | 671 nM |  |  | 
32 | O=C(NCc1ccccc1)c1cccc2c1Cc1c(-c3ccc(-c4ccc(O)cc4)cc3)n[nH]c1-2 | > 10000 nM |  |  | 
33 | Oc1ccc(-c2ccc(-c3n[nH]c4c3Cc3ccc(CNCCN5CCCC5)cc3-4)cc2)cc1 | 7.1 nM | 2800 nM |  | 
34 | COc1cc2c(cc1CN1CCN(C)CC1)Cc1c(-c3ccc(-c4ccc(O)cc4)cc3)n[nH]c1-2 | 0.51 nM |  |  | 
35 | Oc1ccc(-c2ccc(-c3n[nH]c4c3Cc3ccccc3-4)cc2)cc1 | 1370 nM |  |  | 
36 | CN1CCN(Cc2ccc3c(c2)Cc2c(-c4ccc(-c5ccc(O)cc5)cc4)n[nH]c2-3)CC1 | 24 nM | 1700 nM | > 10000 nM | Vd [4]: 3.4 L/kg; half-life [5]: 30 min; AUC (Mus musculus): 1500 ng·h/mL; Cmax [7]: 1100 nM; AUC [8]: 2700 ng·h/mL; Cmax [9]: 90 nM; AUC [11]: 450 ng·h/mL; bioavailability [10]: 9%; solubility [16]: < 0.03 µg/mL
37 | COc1cc2c(cc1C(=O)N[C@H]1CC[C@H](O)CC1)Cc1c(-c3ccc(-c4ccc(O)cc4)cc3)n[nH]c1-2 | 0.24 nM | 38000 nM | > 10000 nM | clearance [3]: 183 mL/min/kg; Vd [4]: 6 L/kg; half-life [5]: 23.4 min; AUC [6]: 570 ng·h/mL; Cmax [7]: 1500 nM; AUC [8]: 4200 ng·h/mL; Cmax [9]: < 100 nM; bioavailability [10]: 0%
38 | COc1cc2c(cc1C(=O)N1CCN(C)CC1)Cc1c(-c3ccc(-c4ccc(O)cc4)cc3)n[nH]c1-2 | 2.3 nM |  |  | 
